Experiments:
[1] = xn = mol fraction of the nth substance listed; conditions: 101.3 kPa, Liquid; for speed of sound: Sing-around technique in a fixed-path interferometer; for mass density: Vibrating tube method
[2] = refractive index (Na D-line) (dimensionless); xn = mol fraction of the nth substance listed; conditions: 101.3 kPa, Liquid, Standard Abbe refractometry

CCCCn1cc[n+](C)c1.COS(=O)(=O)[O-] [1-butyl-3-methylimidazolium methyl sulfate] + CO
Conditions	mass density, [1] [kg/m3]	refractive index, [2]	speed of sound, [1] [m/s]
298.15 K, x1 = 0.0422	871.193	1.35708	1191.8
298.15 K, x1 = 0.094	942.4	1.38271	1273.9
298.15 K, x1 = 0.1857	1027.84	1.41321	1384.7
298.15 K, x1 = 0.2858	1084.79	1.43348	1464
298.15 K, x1 = 0.3729	1118.3	1.44537	1512.2
298.15 K, x1 = 0.4772	1146.38	1.45531	1553.5
298.15 K, x1 = 0.5769	1166.12	1.46226	1583.1
298.15 K, x1 = 0.6775	1181.29	1.46761	1606.1
298.15 K, x1 = 0.7947	1194.94	1.47248	1627
298.15 K, x1 = 0.8923	1204.14	1.47576	1641.7
298.15 K, x1 = 0.9526	1208.98	1.47744	1649.4
298.15 K, x1 = 1	1212.06	1.47824	1654.6
303.15 K, x1 = 0.0422	866.765	1.35523	1176.5
303.15 K, x1 = 0.094	938.21	1.38094	1259.6
303.15 K, x1 = 0.1857	1023.91	1.41156	1371.1
303.15 K, x1 = 0.2858	1081.04	1.43193	1450.9
303.15 K, x1 = 0.3729	1114.64	1.44388	1499.3
303.15 K, x1 = 0.4772	1142.82	1.45387	1540.9
303.15 K, x1 = 0.5769	1162.61	1.46087	1570.7
303.15 K, x1 = 0.6775	1177.83	1.46624	1593.8
303.15 K, x1 = 0.7947	1191.5	1.47111	1614.7
303.15 K, x1 = 0.8923	1200.73	1.4744	1629.5
303.15 K, x1 = 0.9526	1205.6	1.47608	1637.2
303.15 K, x1 = 1	1208.7	1.47704	1642.2
308.15 K, x1 = 0.0422	862.332	1.35331	1161.3
308.15 K, x1 = 0.094	934.013	1.37913	1245.1
308.15 K, x1 = 0.1857	1019.99	1.4099	1357.5
308.15 K, x1 = 0.2858	1077.29	1.43036	1437.7
308.15 K, x1 = 0.3729	1111	1.44239	1486.4
308.15 K, x1 = 0.4772	1139.26	1.45242	1528.2
308.15 K, x1 = 0.5769	1159.12	1.45945	1558.2
308.15 K, x1 = 0.6775	1174.38	1.46485	1581.4
308.15 K, x1 = 0.7947	1188.07	1.46972	1602.4
308.15 K, x1 = 0.8923	1197.33	1.47303	1617.2
308.15 K, x1 = 0.9526	1202.23	1.47475	1624.9
308.15 K, x1 = 1	1205.35	1.47577	1630
313.15 K, x1 = 0.0422	857.888	1.35141	1146.2
313.15 K, x1 = 0.094	929.815	1.37735	1230.8
313.15 K, x1 = 0.1857	1016.06	1.40827	1343.9
313.15 K, x1 = 0.2858	1073.54	1.4288	1424.6
313.15 K, x1 = 0.3729	1107.37	1.4409	1473.6
313.15 K, x1 = 0.4772	1135.72	1.45097	1515.7
313.15 K, x1 = 0.5769	1155.64	1.45804	1545.9
313.15 K, x1 = 0.6775	1170.94	1.46348	1569.2
313.15 K, x1 = 0.7947	1184.65	1.46836	1590.3
313.15 K, x1 = 0.8923	1193.93	1.47168	1605.1
313.15 K, x1 = 0.9526	1198.87	1.47338	1612.9
313.15 K, x1 = 1	1202.01	1.47443	1617.9
